The subject of one assay is PAR2. The assay is described as follows: MC903 AD model, PAR2 protein expression in ears by western blot. The class given is in vivo, mouse. The following applies: topical, vs MC903. On the procedure:
Mice were treated with SP16 in 70% EtOH (MC903+SP16) or drug vehicle (MC903). Normal control (NC) mice were treated with EtOH only. Ears were measured for PAR2 protein expression through western blot analysis (quantitative analysis after normalization to beta-actin shown) (n=3-5). TSLP was measured in both the ears and serum by ELISA (N=3-5). Scratching was assessed over a 3 minute period after a 5-minute acclimatization period and the number of scratches are shown (n=3). IL-4 was measured in ear lysate via ELISA (N=3-5).

The subject of the next assay is phospho-ERK1/2. In words: Cell signaling analysis in PC12 cells, immunoblot of phospho-ERK1/2. It counts as cell-based, rat. The method, then: Cell signaling analysis: Rat PC12 cells were purchased from ATCC (CRL-1721). PC12 cells were maintained in high glucose DMEM (Gibco, USA) containing 10% heat-inactivated FBS (Gibco, USA), 5% HyClone heat-inactivated horse serum (Cytiva, USA), penicillin (100 units/ml) and streptomycin ([…]) in 6-well plates that were pre-coated with 0.01 mg/ml type IV collagen (Sigma-Aldrich, St. Louis, MO, USA). Cells were transferred to serum-free medium (SFM) 4 h prior to adding effectors, and then treated with SP163M (2.4, 24 or 240 nM); EI-tPA (12 nM), NGF (0.36 nM), or vehicle (PBS) for 10 min. In some cases, cells were pre-incubated with the competitive antagonist of LRP1, GST-RAP (150 nM) for 15 min or electroporated using the Rat Neuron Nucleofector Amaxa Kit (Lonza Biosciences) and incubated with siRNA to silence LRP1 expression (siLRP1; M-094191-01-0010, Dharmacon) for 48 h. Control cells were transfected with non-targeting control (NTC) siRNA (NTC; D-001810-10-05, Dharmacon). Cells were rinsed with ice-cold PBS and proteins were extracted in RIPA buffer (20 mM sodium phosphate, 150 mM NaCl, pH 7.4, 1% Triton X-100, 0.5% sodium deoxycholate, 0.1% SDS) supplemented with protease and phosphatase inhibitors (Roche Diagnostics, USA). After 30 min on ice, lysates were centrifuged at 15000×g for 5 min, supernatant collected and stored at −20° C. Equal amounts of protein from cell lysates (20 μg), as determined by BCA Protein Assay (ThermoFisher Scientific, Waltham, MA, USA), were subjected to 10% SDS-PAGE and electro-transferred to nitrocellulose membranes. The membranes were blocked with 5% nonfat dried milk and then incubated with primary anti-phospho-AKT (Cell Signaling Technology, Danvers, MA, USA; cat #9271S; 1:1000), anti-phospho-ERK1/2 (Cell Signaling Technology, Danvers, MA, USA; cat #9101S; 1:1000), anti-LRP1 (Cell Signaling Technology, Danvers, MA, USA; cat #64099S; 1:1000) or anti total-ERK1/2 (Cell Signaling Technology, Danvers, MA, USA; cat #91012S; 1:1000). Immunoblots were developed using Radiance, Radiance Q, and Radiance Plus chemiluminescent substrates and imaged using a BioRad ChemiDoc Imaging System (Bio-Rad, Hercules, CA, USA).

For a further assay, the system named is GAP-43 mRNA. In words: RT-qPCR of GAP-43 mRNA in primary cultured adult DRG neurons. The class given is cell-based, rat. The note with it: 240 nM, 24 h, vs vehicle.

As to “VKFNKPFVFLMIEQNTK (SP16 peptide core sequence including the LRP1 binding site; listed as Homo sapiens)”, the “PAR2 protein expression in ears” value with PAR2 is “PAR2 and TSLP inhibition”. The “activation of ERK1/2 over time” value with phospho-ERK1/2 (240 nM, 0-30 min) is reported as “robustly activated ERK1/2 from 5 to 30 min”. The “lowest concentration that activated phospho-ERK1/2” value in the assay with phospho-ERK1/2 (10 min, 0-240 nM) came to 24 nM. Further, the “activation of ERK1/2 in cells transfected with NTC siRNA” value in the assay on phospho-ERK1/2 (48 h after transfection) is recorded as “ERK1/2 was robustly activated”. Besides, the “GAP-43 mRNA” value with GAP-43 mRNA was “increased GAP-43 mRNA compared to vehicle-treated neurons”.

The record behind these values is patent US20250161419A1, “SERPIN PEPTIDES AND METHODS OF USING THE SAME” (SERPIN PHARMA, LLC, priority 2022, published 2025).
